Among the data in US20240368163A1, “COMPOUNDS AND METHODS FOR MODULATING SPLICING” (REMIX THERAPEUTICS INC., priority 2021, published 2024) are IC50 and AC50 values, retold here.

pIC50: −log10 of the molar value. Where two headings read alike, the source gives them in different places. Where only a bound is given, the exact number is not on record here.

Assay type in all cases: cell-based, human
Assay [1] has as its system Target C. Nature of the assay: Splicing RT-qPCR panel, Target C canonical junction (CJ) mRNA. Conditions: Homo sapiens, read-out: Target C IC50 (decrease in CJ mRNA levels). The protocol:
(§1) Compounds described herein were used to modulate RNA transcript abundance in cells. The expression of a target mRNA was measured by detecting the formation of an exon-exon junction in the canonical transcript (CJ). A compound mediated exon-inclusion event was detected by observing an increase in formation of a new junction with an alternative exon (AJ). Real-time qPCR assays were used to detect these splicing switches and interrogate the potency of various compounds towards different target genes. A high-throughput real time quantitative PCR (RT-qPCR) assay was developed to measure these two isoforms of the mRNA (CJ and AJ) for exemplary genes, such as HTT, SMN2, and MYB, together with a control housekeeping gene, GAPDH or GUSB or PPIA, used for normalization. Briefly, the A673 or K562 cell line was treated with various compounds described herein (e.g., compounds of Formula (I)). After treatment, the levels of the HTT, MYB, or SMN2 mRNA targets were determined from each sample of cell lysate by cDNA synthesis followed by qPCR.
(§2) The A673 cell line was cultured in DMEM with 10% FBS. Cells were diluted with full growth media and plated in a 96-well plate (15,000 cells in 100 ul media per well). The plate was incubated at 37° C. with 5% CO2 for 24 hours to allow cells to adhere. An 11-point 3-fold serial dilution of the compounds was made in DMSO then diluted in media in an intermediate plate. Compounds were transferred from the intermediate plate to the cell plate with the top dose at a final concentration of 10 uM in the well. Final DMSO concentration was kept at or below 0.25%. The cell plate was returned to the incubator at 37° C. with 5% CO2 for an additional 24 hours.
(§3) The K562 cell line was cultured in IMDM with 10% FBS. For K562, cells were diluted with full growth media and plated in either a 96-well plate (50,000 cells in 50 uL media per well) or a 384-well plate (8,000-40,000 cells in 45 uL media per well). An 11-point 3-fold serial dilution of the compounds were made in DMSO then diluted in media in an intermediate plate. Compound was transferred from the intermediate plate to the cell plate with the top dose at a final concentration of 10 uM in the well. Final DMSO concentration was kept at or below 0.25%. Final volume was 100 uL for 96-well plate and 50 uL for 384-well plate. The cell plate was then placed in an incubator at 37° C. with 5% CO2 for 24 hours.
(§4) The cells were then gently washed with 50 uL-100 uL cold PBS before proceeding to addition of lysis buffer. 30 uL-50 μL of room temperature lysis buffer with DNAse I (and optionally RNAsin) was added to each well. Cells were shaken/mixed thoroughly at room temperature for 5-10 minutes for lysis to take place and then 3 uL-5 μL of room temperature stop solution was added and wells were shaken/mixed again. After 2-5 minutes, the cell lysate plate was transferred to ice for RT-qPCR reaction setup. The lysates could also be frozen at −80° C. for later use.
(§5) In some cases, a direct lysis buffer was used. An appropriate volume of 3× lysis buffer (10 mM Tris, 150 mM NaCl, 1.5%-2.5% Igepal and 0.1-1 U/uL RNAsin, pH 7.4) was directly added to either K562 or A673 cells in media and mixed by pipetting 3 times. The plates were then incubated at room temperature with shaking/rocking for 20-50 minutes to allow for lysis to take place. After this time, the cell lysate plate was transferred to ice to set up for the RT-qPCR reactions. The lysates could also be frozen at −80° C. for later use.
(§6) To set up 10 uL RT-qPCR reactions, cell lysates were transferred to 384-well qPCR plates containing the master mix according to the table below. The plates were sealed, gently vortexed, and spun down before the run. The volumes were adjusted accordingly in some instances where the reaction was carried in 20 μL. The table below summarizes the components of the RT-qPCR reactions:
(§7) The RT-qPCR reaction was performed using a QuantStudio (ThermoFisher) under the following fast cycling conditions. […]

Assay [2] has as its system SMN2. Nature of the assay: Splicing RT-qPCR panel, SMN2 canonical junction (CJ) mRNA. Conditions: Homo sapiens, read-out: SMN2 IC50 (decrease in CJ mRNA levels). As for the experimental part: as §1, §2, §3, §4, §5, §6, §7
Assay [3] relates to HTT. Nature of the assay: Splicing RT-qPCR assay, HTT mRNA canonical junction (CJ) and alternative junction (AJ). Conditions: Homo sapiens; for AC50: increase in AJ mRNA. The protocol:
as §1, §2, §3, §4, §5, §6, §7

The test system of assay [4] is MYB. Nature of the assay: Splicing RT-qPCR assay, MYB mRNA canonical junction (CJ) and alternative junction (AJ). The following applies: Homo sapiens; for AC50: increase in AJ mRNA. The protocol:
as §1, §2, §3, §4, §5, §6, §7

Setting [5] is: RT-qPCR panel, canonical junction mRNA, compound concentration having 50% response in CJ decrease.
The mark [6] stands for this setting: 24 h, decrease in CJ mRNA, A673 or K562 cells, 24 hours treatment, RT-qPCR, read-out: HTT CJ IC50.
[7] abbreviates: 24 h, A673 or K562 cells, 24 hours treatment, RT-qPCR.
[8] abbreviates: RT-qPCR panel, canonical junction mRNA, compound concentration having 50% response in CJ decrease, read-out: HTT IC50 (decrease in CJ mRNA levels).
Where [9] appears, read: 24 h, decrease in CJ mRNA, A673 or K562 cells, 24 hours treatment, RT-qPCR, read-out: MYB CJ IC50.
Setting [10] is: RT-qPCR panel, canonical junction mRNA, compound concentration having 50% response in CJ decrease, read-out: MYB IC50 (decrease in CJ mRNA levels).
Where [11] appears, read: A673 or K562 cells, 24 hours treatment, RT-qPCR.
[12] abbreviates: gene panel, CJ qPCR, protocol of Example 142.

Turning to `CN(c1ccc(-c2ccc(-n3cccn3)c3nn[nH]c23)nn1)[C@@H]1C[C@H]2CC[C@@H](C1)N2` [Compound 119], the pIC50 in assay [1] (setting [5]), in assay [2] (setting [5]), in assay [3] (setting [6]), in assay [3] (setting [8]), in assay [4] (setting [9]) and in assay [4] (setting [10]) was 6.00 to 7.00 throughout. The AC50 in assay [3] (setting [7]) was in the range of 1 to 10 µM; in assay [4] (setting [7]), 0.1 to 1 µM.

Regarding `CC1(C)CC(Oc2ccc(-c3ccc(-c4cn[nH]c4)c4cn[nH]c34)nn2)CC(C)(C)N1` [Compound 138], the pIC50 in assay [1] (setting [5]), in assay [2] (setting [5]), in assay [3] (setting [6]), in assay [3] (setting [8]), in assay [4] (setting [9]) and in assay [4] (setting [10]) was 6.00 to 7.00 each time. The half-maximal activity concentration (AC50) in assay [3] (setting [7]) and in assay [4] (setting [7]) was 0.1 to 1 µM in each case.

As to `CN(c1cnc(-c2cc(F)c(-c3cn[nH]c3)c3cn[nH]c23)nn1)[C@@H]1C[C@H]2CC[C@@H](C1)N2` [Compound 149], the pIC50 is 6.00 to 7.00 in assay [1] (setting [5]); 6.00 to 7.00 in assay [2] (setting [5]); more than 7.00 in assay [3] (setting [8]); 5.00 to 6.00 in assay [4] (setting [10]); 5.00 to 6.00 in assay [4] (decrease in CJ mRNA, A673 or K562 cells, 24 hours treatment, RT-qPCR, read-out: MYB CJ IC50). For the same molecule, the figures for the AC50 in assay [3] (setting [11]) and in assay [4] (setting [11]) were less than 0.1 µM and 1 to 10 µM, respectively.

Regarding `CN(c1cnc(-c2cc(F)c(-c3cnn(C)c3)c3cn[nH]c23)nn1)[C@@H]1C[C@H]2CC[C@@H](C1)N2` [Compound 290], the pIC50 was 6.00 to 7.00 in assay [1] (setting [5]); 6.00 to 7.00 in assay [2] (setting [5]); more than 7.00 in assay [3] (setting [8]); 5.00 to 6.00 in assay [4] (setting [9]); 5.00 to 6.00 in assay [4] (setting [10]). For the same molecule, the AC50 in assay [3] (setting [7]) was less than 0.1 µM; in assay [4] (setting [7]), 0.1 to 1 µM.

In the case of `c1cnn(-c2ccc(-c3ccc(O[C@@H]4C[C@H]5CC[C@@H](C4)N5)nn3)c3cn[nH]c23)c1` [Compound 308], the pIC50 in assay [1] (setting [5]), in assay [2] (setting [5]), in assay [3] (setting [8]), in assay [4] (setting [9]) and in assay [4] (setting [10]) was more than 7.00 in each case. Further, the AC50 in assay [3] (setting [7]) and in assay [4] (setting [7]) was less than 0.1 µM in each case.

On to `CN(c1ccc(-c2ccc(-n3cccn3)c3[nH]ncc23)nn1)[C@@H]1C[C@H]2CC[C@@H](C1)N2` [Compound 409], for which the pIC50 in assay [1] (setting [5]) was more than 7.00; in assay [2] (setting [5]) it was more than 7.00; in assay [3] (setting [8]), more than 7.00; in assay [4] (setting [9]), 6.00 to 7.00; in assay [4] (setting [10]) it was 6.00 to 7.00. Further, the AC50 in assay [3] (setting [7]) was less than 0.1 µM; in assay [4] (setting [7]), 0.1 to 1 µM.

Take `c1cnn(-c2ccc(-c3cnc(O[C@H]4C[C@H]5COC[C@@H](C4)N5)nn3)c3cn[nH]c23)c1` [Compound 585]: the pIC50 in assay [1] (setting [5]), in assay [2] (setting [5]), in assay [3] (setting [8]) and in assay [4] (setting [10]) was less than 5.00 in each case.

For the molecule `COc1nc(-c2ccc(OC3CC(C)(C)NC(C)(C)C3)nc2)ccc1-c1cnn(C)c1` [Compound 990], the pIC50 in assay [1] (setting [12]) is less than 5.00; in assay [2] (setting [12]), 5.00 to 6.00; in assay [3] (gene panel, CJ qPCR, protocol of Example 142, read-out: HTT IC50 (decrease in CJ mRNA levels)), less than 5.00; in assay [4] (gene panel, CJ qPCR, protocol of Example 142, read-out: MYB IC50 (decrease in CJ mRNA levels)) it was less than 5.00.
